Source: ChEMBL document CHEMBL1201862, “PubChem BioAssay data set” (2004)
Values belong to the compound of their own block, whether it stands above or below them. Activity calls are given as the source filed them.

Experiments:
[1] = target: T1, Heat shock factor protein 1 (Mus musculus, UniProt P38532); test: HSF1 potentiators in luciferase reporter cells, confirmation, cell-based, NIH3T3, luminescence, dose retest (AID 435004); format: functional;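 note: stress induced by proteasome inhibitor MG132 added 30 min after compound; luciferase reporter driven by HSF1 response element in NIH3T3 cells; actives raise luminescence as potentiators of the MG132 stress response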
T1 sequence (P38532 whole entry): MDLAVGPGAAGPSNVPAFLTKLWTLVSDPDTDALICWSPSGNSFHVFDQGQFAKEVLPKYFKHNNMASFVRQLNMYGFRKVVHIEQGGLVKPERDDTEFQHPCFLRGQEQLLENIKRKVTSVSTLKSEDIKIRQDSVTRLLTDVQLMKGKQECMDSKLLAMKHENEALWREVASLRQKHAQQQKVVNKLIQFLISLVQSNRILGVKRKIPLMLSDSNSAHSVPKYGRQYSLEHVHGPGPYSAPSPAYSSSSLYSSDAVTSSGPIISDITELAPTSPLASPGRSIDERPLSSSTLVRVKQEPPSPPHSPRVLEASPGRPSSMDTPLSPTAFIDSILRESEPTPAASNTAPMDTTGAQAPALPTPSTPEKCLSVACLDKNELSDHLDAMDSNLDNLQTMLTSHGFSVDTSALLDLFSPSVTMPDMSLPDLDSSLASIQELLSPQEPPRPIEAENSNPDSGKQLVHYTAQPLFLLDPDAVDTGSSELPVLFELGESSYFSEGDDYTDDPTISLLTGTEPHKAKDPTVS

[2] = target: T2, Sentrin-specific protease 1 (Homo sapiens, UniProt Q9P0U3); test: Dose response confirmation of small molecule inhibitors of the catalytic domain of the SUMO protease, SENP1 in a FRET assay.; format: functional; details: read-out: IC50_Mean
[3] = target: T2, Sentrin-specific protease 1; test: potency of human SENP1 inhibitors, dose response, biochemical, kinetic FRET (AID 651697); format: functional; details: read-out: IC50_Mean
[4] = target: Nuclear receptor subfamily 5 group A member 2 (Homo sapiens, UniProt O00482); format: functional, cell-based;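 note: HEK293T cells transfected with LRH-1 and a StAR promoter luciferase reporter; potency for inhibitors that lower LRH-1 driven reporter light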
[5] = StAR promoter reporter inhibition counter-screen, dose response, counter-screen for LRH-1 inverse agonist project, cell-based, luminescence, luciferase reporter (AID 651969); format: functional
Steroidogenic factor 1 = Steroidogenic factor 1 (Homo sapiens, UniProt Q13285); test: Counterscreen for inverse agonists of the liver receptor homolog-1 (LRH-1; NR5A2): Luminescence-based cell-based high throughput dose response assay to identify inverse agonists of the Steroidogenic Factor 1 Nuclear Receptor (SF1; NR5A1).; format: functional
[6] = target: T3, Tyrosine-protein phosphatase non-receptor type 22 (Homo sapiens, UniProt Q9Y2R2); test: LYP phosphatase inhibition for selectivity, dose response, selectivity assay for LMPTP inhibitor project, biochemical, fluorescence, LYP catalytic domain (AID 652006); format: functional; details: read-out: IC50_Mean
T3 sequence (Q9Y2R2 whole entry): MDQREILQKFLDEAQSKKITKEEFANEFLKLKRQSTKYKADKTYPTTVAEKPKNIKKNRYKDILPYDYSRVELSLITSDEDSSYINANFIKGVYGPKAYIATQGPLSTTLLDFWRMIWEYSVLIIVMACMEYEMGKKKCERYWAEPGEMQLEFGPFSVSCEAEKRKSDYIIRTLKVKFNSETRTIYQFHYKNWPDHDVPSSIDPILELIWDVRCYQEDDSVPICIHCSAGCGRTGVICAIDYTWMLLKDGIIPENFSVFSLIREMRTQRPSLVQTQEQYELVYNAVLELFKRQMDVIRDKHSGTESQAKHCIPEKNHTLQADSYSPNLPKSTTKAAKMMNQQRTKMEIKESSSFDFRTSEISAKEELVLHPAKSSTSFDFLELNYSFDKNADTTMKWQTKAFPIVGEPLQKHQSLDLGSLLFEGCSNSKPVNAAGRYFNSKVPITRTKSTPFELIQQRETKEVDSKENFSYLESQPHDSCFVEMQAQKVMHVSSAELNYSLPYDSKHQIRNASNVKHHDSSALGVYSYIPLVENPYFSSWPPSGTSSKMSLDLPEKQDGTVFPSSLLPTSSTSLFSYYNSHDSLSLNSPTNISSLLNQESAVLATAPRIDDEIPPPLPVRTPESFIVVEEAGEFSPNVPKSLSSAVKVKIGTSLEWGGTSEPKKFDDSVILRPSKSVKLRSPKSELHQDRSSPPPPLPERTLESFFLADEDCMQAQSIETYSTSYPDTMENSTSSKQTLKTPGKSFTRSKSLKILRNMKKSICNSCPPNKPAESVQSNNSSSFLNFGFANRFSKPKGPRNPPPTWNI

[7] = target: Low molecular weight phosphotyrosine protein phosphatase (Homo sapiens, UniProt P24666); format: functional; details: read-out: IC50_Mean;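 note: Dose-response confirmation assay measuring inhibition of LMPTP enzyme activity by fluorescence intensity read-out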
[8] = target: T4, Sentrin-specific protease 8 (Homo sapiens, UniProt Q96LD8); format: functional
T4 sequence (Q96LD8 whole entry): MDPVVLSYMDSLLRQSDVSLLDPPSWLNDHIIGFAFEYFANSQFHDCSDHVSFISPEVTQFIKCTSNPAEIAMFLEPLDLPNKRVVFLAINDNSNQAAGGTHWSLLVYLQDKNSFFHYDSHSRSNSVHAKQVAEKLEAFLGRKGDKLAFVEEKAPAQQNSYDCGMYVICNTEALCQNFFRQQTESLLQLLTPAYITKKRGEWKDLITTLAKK

[9] = target: T4, Sentrin-specific protease 8; format: functional; remark: listed apart in the source
[10] = Counterscreen for inhibitors of Trypanosoma brucei methionyl tRNA synthetase (MetRS): Luminescence-based cell-based high throughput dose response assay to identify compounds that are cytotoxic to Jurkat human T lymphocyte cells.; format: functional
[11] = target: T5, Methionyl-tRNA synthetase, putative (Trypanosoma brucei brucei, UniProt Q38C91); format: functional, Trypanosoma brucei brucei strain 927/4 GUTat10.1
T5 sequence (Q38C91 whole entry): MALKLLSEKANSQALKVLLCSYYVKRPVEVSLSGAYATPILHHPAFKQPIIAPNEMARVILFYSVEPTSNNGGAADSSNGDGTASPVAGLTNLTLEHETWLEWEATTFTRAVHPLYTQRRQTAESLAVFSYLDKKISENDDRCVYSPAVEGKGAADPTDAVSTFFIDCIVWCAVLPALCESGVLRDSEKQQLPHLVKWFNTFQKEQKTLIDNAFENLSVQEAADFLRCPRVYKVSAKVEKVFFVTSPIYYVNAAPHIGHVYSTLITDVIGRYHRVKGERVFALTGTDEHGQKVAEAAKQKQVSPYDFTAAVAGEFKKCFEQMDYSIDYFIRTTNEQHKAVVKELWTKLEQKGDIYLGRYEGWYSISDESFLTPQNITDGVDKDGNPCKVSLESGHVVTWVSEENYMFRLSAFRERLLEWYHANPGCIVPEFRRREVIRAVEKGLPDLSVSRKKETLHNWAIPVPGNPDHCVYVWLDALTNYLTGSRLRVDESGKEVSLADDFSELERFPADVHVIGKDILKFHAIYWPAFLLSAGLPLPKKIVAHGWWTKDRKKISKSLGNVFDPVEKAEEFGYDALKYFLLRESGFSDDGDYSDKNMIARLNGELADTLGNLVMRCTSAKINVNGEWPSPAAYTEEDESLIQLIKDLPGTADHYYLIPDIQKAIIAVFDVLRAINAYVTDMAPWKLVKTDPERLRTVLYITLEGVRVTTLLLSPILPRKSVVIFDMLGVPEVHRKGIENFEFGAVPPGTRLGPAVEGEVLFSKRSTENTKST

[12] = target: T5, Methionyl-tRNA synthetase, putative; format: functional, Trypanosoma brucei brucei strain 927/4 GUTat10.1; remark: listed apart in the source
[13] = target: T6, ATP-dependent translocase ABCB1 (Homo sapiens, UniProt P08183); test: ABCB1 efflux inhibitor potency, dose response, Jurkat-DNR cells, JC-1, flow cytometry, set 2 (AID 504569); format: functional; details: read-out: EC50_MICROM_;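 note: potency of pump inhibitors that raise cellular JC-1 green fluorescence up to the nicardipine level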
[14] = target: T6, ATP-dependent translocase ABCB1; test: ABCG2 efflux pump inhibitor potency, dose response, Ig-MXP3 cells, JC-1, flow cytometry, set 2 (AID 504566); format: functional; details: read-out: EC50_MICROM_;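 note: flow cytometry median green fluorescence of retained JC-1 dye; potency of efflux pump inhibition measured as rising substrate retention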

T2 sequence (Q9P0U3 whole entry, the tested form may be a part): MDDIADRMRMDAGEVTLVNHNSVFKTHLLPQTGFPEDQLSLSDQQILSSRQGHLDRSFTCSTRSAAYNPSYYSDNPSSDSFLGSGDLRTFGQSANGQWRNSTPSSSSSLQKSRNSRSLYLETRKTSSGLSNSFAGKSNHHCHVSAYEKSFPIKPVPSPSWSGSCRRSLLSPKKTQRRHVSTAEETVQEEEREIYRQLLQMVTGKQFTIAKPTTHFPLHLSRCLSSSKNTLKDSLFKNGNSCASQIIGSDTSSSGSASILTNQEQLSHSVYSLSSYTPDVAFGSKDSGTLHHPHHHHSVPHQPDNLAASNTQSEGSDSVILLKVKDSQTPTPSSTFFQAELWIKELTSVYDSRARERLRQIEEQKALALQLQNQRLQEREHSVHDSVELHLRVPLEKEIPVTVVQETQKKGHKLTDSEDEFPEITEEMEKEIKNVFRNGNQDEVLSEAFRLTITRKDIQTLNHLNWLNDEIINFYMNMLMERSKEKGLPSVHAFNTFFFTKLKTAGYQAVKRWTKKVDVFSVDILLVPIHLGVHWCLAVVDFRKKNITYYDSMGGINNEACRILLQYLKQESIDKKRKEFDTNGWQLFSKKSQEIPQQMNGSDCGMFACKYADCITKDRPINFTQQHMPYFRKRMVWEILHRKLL
T6 sequence (P08183 whole entry): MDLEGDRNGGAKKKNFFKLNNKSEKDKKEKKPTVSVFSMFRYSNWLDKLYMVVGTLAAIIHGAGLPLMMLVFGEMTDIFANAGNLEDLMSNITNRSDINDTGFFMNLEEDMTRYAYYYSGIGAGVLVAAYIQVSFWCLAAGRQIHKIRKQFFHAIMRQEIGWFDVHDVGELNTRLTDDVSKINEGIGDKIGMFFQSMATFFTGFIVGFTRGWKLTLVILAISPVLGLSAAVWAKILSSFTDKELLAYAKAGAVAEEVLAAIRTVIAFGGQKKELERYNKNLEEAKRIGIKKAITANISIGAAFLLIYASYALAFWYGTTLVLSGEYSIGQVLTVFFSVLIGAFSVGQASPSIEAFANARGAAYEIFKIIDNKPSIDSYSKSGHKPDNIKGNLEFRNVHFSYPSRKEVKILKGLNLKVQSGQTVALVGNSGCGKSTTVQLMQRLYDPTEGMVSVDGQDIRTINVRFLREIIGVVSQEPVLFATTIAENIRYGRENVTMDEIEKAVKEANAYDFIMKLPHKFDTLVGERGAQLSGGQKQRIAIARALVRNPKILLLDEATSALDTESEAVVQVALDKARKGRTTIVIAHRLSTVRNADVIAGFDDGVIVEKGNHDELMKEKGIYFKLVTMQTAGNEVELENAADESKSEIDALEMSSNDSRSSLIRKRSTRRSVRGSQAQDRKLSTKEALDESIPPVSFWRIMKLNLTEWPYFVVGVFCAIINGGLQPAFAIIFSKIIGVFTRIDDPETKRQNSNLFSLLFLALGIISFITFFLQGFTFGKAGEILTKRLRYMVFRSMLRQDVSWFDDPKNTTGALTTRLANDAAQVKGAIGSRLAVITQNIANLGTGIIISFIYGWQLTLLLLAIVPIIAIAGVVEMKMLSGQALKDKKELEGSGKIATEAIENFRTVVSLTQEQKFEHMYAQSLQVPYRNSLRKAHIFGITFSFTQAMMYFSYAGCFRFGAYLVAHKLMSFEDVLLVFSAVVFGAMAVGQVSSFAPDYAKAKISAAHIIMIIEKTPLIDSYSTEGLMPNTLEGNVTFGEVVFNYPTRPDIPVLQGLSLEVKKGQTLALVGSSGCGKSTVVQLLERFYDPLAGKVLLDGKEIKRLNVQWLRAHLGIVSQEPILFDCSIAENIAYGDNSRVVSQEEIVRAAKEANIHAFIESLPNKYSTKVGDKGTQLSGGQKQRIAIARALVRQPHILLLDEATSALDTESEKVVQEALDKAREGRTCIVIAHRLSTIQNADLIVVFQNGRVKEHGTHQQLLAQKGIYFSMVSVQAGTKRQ
Low molecular weight phosphotyrosine protein phosphatase, sequence (P24666 whole entry): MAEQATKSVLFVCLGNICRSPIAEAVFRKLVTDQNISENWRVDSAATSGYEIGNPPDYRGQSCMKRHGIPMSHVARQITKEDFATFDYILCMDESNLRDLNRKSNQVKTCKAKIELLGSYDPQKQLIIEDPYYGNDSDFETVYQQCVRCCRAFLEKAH
Nuclear receptor subfamily 5 group A member 2, sequence (O00482 whole entry): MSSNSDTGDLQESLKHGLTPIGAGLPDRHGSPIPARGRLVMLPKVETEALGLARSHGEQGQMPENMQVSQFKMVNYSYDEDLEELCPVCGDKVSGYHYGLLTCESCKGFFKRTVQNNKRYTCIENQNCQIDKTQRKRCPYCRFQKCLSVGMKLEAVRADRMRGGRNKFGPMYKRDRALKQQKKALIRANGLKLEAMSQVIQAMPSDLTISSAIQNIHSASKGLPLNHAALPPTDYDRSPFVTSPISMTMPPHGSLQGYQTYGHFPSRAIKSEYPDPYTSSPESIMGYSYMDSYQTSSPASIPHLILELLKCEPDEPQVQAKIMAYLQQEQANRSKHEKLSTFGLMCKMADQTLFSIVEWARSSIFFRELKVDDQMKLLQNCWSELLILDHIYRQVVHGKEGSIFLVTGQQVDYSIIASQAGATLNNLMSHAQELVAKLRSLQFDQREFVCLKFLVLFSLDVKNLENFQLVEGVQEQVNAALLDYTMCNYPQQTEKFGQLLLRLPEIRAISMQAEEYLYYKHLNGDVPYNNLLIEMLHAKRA
Steroidogenic factor 1, sequence (Q13285 whole entry, the tested form may be a part): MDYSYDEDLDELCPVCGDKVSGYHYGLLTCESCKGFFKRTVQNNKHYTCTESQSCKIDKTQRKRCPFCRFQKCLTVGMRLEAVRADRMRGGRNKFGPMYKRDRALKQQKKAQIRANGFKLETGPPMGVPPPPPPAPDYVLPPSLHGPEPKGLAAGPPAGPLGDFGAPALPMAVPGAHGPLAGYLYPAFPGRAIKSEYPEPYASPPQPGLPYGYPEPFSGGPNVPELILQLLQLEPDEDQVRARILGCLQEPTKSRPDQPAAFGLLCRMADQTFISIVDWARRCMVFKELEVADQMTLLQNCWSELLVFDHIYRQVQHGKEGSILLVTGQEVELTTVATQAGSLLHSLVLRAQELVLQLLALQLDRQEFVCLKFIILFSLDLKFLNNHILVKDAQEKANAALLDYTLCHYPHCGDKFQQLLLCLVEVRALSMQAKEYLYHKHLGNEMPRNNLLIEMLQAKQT

Structure (SMILES): CSc1c(C#N)c(N)nc2sc(C(=O)c3ccccc3)c(N)c12
EC50 [1]: 95.5 µM (active)
IC50 [2]: 13.8 µM (active)
IC50 [3]: 13.2 µM (active)

Structure (SMILES): CCOc1ccc(NC(=O)CSc2nc(O)c3c[nH]nc3n2)cc1
IC50 [4]: 8.61 µM (active)
IC50 [5]: 35.9 µM (inactive)
IC50 (Steroidogenic factor 1): 2.89 µM (active)

Structure (SMILES): CN1CCC2(CC1)N=C(c1ccc(F)cc1)C(=S)N2C(=O)c1ccccc1
IC50 [8]: 28.6 µM (active)
IC50 [9]: > 100 µM (inactive)

Structure (SMILES): O=C(CCCOc1ccc(Cl)cc1Cl)N/N=C/c1ccccc1
IC50 [10]: 83.3 µM (inactive)
IC50 [11]: 110 µM (inactive)
IC50 [12]: 16 µM (inactive)

Further lines, results first:

IC50 [6]: 54.2 µM (inactive)
IC50 [7]: 17.1 µM (active)
Structure (SMILES): NS(=O)(=O)c1ccc(CCNC(=O)c2ccc3nccnc3c2)cc1

EC50 [13]: 4.86 µM (active)
EC50 [14]: 1.3 µM (active)
Structure (SMILES): COc1ccc(-c2cc(N3CCN(C(=O)c4ccoc4)CC3)n3nc(-c4cccc(Cl)c4)cc3n2)cc1
